The subject of this assay is human sst2 receptor. The experiment in a line: Immunofluorescence microscopy based sst2 internalization assay. Particulars: HEK-sst2 cells, 30 min at 37°C, 10 nM. It counts as cell-based.

We go through one substance from publication PMC3025705 (European journal of nuclear medicine and molecular imaging, 2010).

As to Tyr^3-octreotide [TOC], the “sst2 internalization by positive control” value is on record as “sub-maximal internalization effect”.
